How the values were obtained:
[1] = The drug is tested on Z-004 corresponding to metagenome with ENA study accession number: PRJEB37062 and ENA sample accession number: ERS12561804 for biotransformation under anaerobic condition. The drug concentrations were measured over 9 timepoints collected between 0 and 24 hours of incubation by liquid-chromatography-coupled mass spectrometry (LC–MS); details: 2 µM
[2] = The drug is tested on Z-022 corresponding to mouse gut metagenome with ENA study accession number: PRJEB37062 and ENA sample accession number: ERS12561821 for biotransformation under anaerobic condition. The drug concentrations were measured over 9 timepoints collected between 0 and 24 hours of incubation by liquid-chromatography-coupled mass spectrometry (LC–MS); details: 2 µM
[3] = The drug is tested on Z-011 corresponding to mouse gut metagenome with ENA study accession number: PRJEB37062 and ENA sample accession number: ERS12561811 for biotransformation under anaerobic condition. The drug concentrations were measured over 9 timepoints collected between 0 and 24 hours of incubation by liquid-chromatography-coupled mass spectrometry (LC–MS); details: 2 µM
[4] = The drug is tested on Z-016 corresponding to mouse gut metagenome with ENA study accession number: PRJEB37062 and ENA sample accession number: ERS12561815 for biotransformation under anaerobic condition. The drug concentrations were measured over 9 timepoints collected between 0 and 24 hours of incubation by liquid-chromatography-coupled mass spectrometry (LC–MS); details: 2 µM
[5] = human gut metagenome, 24 h, 2 µM
[6] = human gut metagenome, 24 h, 2 µM; remark: listed apart in the source
[7] = The drug is tested on WLS-039 corresponding to human gut metagenome with ENA study accession number: PRJEB37062 and ENA sample accession number: ERS12561746 for biotransformation under anaerobic condition. The drug concentrations were measured over 9 timepoints collected between 0 and 24 hours of incubation by liquid-chromatography-coupled mass spectrometry (LC–MS); details: 2 µM
[8] = human gut metagenome, 24 h, 2 µM; remark: listed apart in the source
[9] = human gut metagenome, 24 h, 2 µM; remark: listed apart in the source
Note: call rule not given here.

Row | Structure (SMILES) | Bacterial Biotransformation [1] | Bacterial Biotransformation [2] | Bacterial Biotransformation [3] | Bacterial Biotransformation [4] | Bacterial Biotransformation [5] | Bacterial Biotransformation [6] | Bacterial Biotransformation [7] | Bacterial Biotransformation [8] | Bacterial Biotransformation [9]
1 | CC(C)(C#N)c1cc(Cn2cncn2)cc(C(C)(C)C#N)c1 [ANASTROZOLE] | Compound NOT metabolized | Compound metabolized | Compound NOT metabolized | Compound NOT metabolized | Compound metabolized | Compound metabolized | Compound NOT metabolized | Compound NOT metabolized | Compound NOT metabolized
2 | O=P(O)(O)O.c1ccc(CN(CC2=NCCN2)c2ccccc2)cc1 [ANTAZOLINE PHOSPHATE] | Compound metabolized | Compound NOT metabolized | Compound NOT metabolized | Compound NOT metabolized | Compound metabolized | Compound NOT metabolized | Compound NOT metabolized | Compound NOT metabolized | Compound NOT metabolized
3 | CN1CCC(=C2c3ccccc3CCc3cccnc32)CC1.O=C(O)/C=C\C(=O)O.O=C(O)/C=C\C(=O)O [AZATADINE MALEATE] | Compound NOT metabolized | Compound NOT metabolized | Compound NOT metabolized | Compound NOT metabolized | Compound metabolized | Compound NOT metabolized | Compound NOT metabolized | Compound NOT metabolized | Compound NOT metabolized
4 | CC(=O)OCC(=O)[C@@]1(O)[C@@H](C)C[C@H]2[C@@H]3CCC4=CC(=O)C=C[C@]4(C)[C@@]3(F)[C@@H](O)C[C@@]21C [BETAMETHASONE ACETATE] | Compound NOT metabolized | Compound metabolized | Compound metabolized | Compound metabolized | Compound metabolized | Compound metabolized | Compound metabolized | Compound metabolized | Compound metabolized
5 | CC(C)NCC(O)COc1ccc(CCOCC2CC2)cc1 (stereo not drawn) [BETAXOLOL] | Compound metabolized | Compound NOT metabolized | Compound NOT metabolized | Compound NOT metabolized | Compound metabolized | Compound NOT metabolized | Compound NOT metabolized | Compound NOT metabolized | Compound NOT metabolized
6 | CC(C)(Oc1ccc(CCNC(=O)c2ccc(Cl)cc2)cc1)C(=O)O [BEZAFIBRATE] | Compound NOT metabolized | Compound metabolized | Compound NOT metabolized | Compound metabolized | Compound metabolized | Compound metabolized | Compound metabolized | Compound metabolized | Compound metabolized
7 | CC(O)(CS(=O)(=O)c1ccc(F)cc1)C(=O)Nc1ccc(C#N)c(C(F)(F)F)c1 (stereo not drawn) [BICALUTAMIDE] | Compound NOT metabolized | Compound NOT metabolized | Compound NOT metabolized | Compound NOT metabolized | Compound NOT metabolized | Compound NOT metabolized | Compound NOT metabolized | Compound NOT metabolized | Compound NOT metabolized
8 | O=C(NCc1ccccc1)OCCO [BURAMATE] | Compound NOT metabolized | Compound NOT metabolized | Compound NOT metabolized | Compound NOT metabolized | Compound NOT metabolized | Compound NOT metabolized | Compound NOT metabolized | Compound NOT metabolized | Compound NOT metabolized
9 | CCN(CC)CCOCCOC(=O)C1(c2ccccc2)CCCC1.O=C(O)CC(O)(CC(=O)O)C(=O)O [CARBETAPENTANE CITRATE] | Compound metabolized | Compound metabolized | Compound NOT metabolized | Compound metabolized | Compound metabolized | Compound metabolized | Compound metabolized | Compound NOT metabolized | Compound metabolized
10 | O=C(O)COCCN1CCN(C(c2ccccc2)c2ccc(Cl)cc2)CC1 (stereo not drawn) [CETIRIZINE] | Compound metabolized | Compound metabolized | Compound NOT metabolized | Compound metabolized | Compound metabolized | Compound metabolized | Compound metabolized | Compound metabolized | Compound metabolized
11 | CN/C(=N/CCSCc1nc[nH]c1C)NC#N [CIMETIDINE] | Compound NOT metabolized | Compound NOT metabolized | Compound NOT metabolized | Compound NOT metabolized | Compound metabolized | Compound metabolized | Compound NOT metabolized | Compound NOT metabolized | Compound NOT metabolized
12 | Br.CN(C)CCCC1(c2ccc(F)cc2)OCc2cc(C#N)ccc21 (stereo not drawn) [CITALOPRAM HYDROBROMIDE] | Compound NOT metabolized | Compound NOT metabolized | Compound metabolized | Compound NOT metabolized | Compound metabolized | Compound metabolized | Compound NOT metabolized | Compound NOT metabolized | Compound NOT metabolized

From ChEMBL document CHEMBL5724914, “Linking interpersonal differences in gut microbiota composition and drug biotransformation activity” (2024)
